The text below walks through data of ChEMBL document CHEMBL1147276, “Novel Acetylenic Acids from the Root Bark of Paramacrolobium caeruleum: Inhibitors of 3-Hydroxy-3-methyl-glutaryl Coenzyme A Reductase” (J Nat Prod, 1989).

One assay deals with T1, 3-hydroxy-3-methylglutaryl-coenzyme A reductase (Homo sapiens, UniProt P04035).
T1 sequence (P04035 whole entry): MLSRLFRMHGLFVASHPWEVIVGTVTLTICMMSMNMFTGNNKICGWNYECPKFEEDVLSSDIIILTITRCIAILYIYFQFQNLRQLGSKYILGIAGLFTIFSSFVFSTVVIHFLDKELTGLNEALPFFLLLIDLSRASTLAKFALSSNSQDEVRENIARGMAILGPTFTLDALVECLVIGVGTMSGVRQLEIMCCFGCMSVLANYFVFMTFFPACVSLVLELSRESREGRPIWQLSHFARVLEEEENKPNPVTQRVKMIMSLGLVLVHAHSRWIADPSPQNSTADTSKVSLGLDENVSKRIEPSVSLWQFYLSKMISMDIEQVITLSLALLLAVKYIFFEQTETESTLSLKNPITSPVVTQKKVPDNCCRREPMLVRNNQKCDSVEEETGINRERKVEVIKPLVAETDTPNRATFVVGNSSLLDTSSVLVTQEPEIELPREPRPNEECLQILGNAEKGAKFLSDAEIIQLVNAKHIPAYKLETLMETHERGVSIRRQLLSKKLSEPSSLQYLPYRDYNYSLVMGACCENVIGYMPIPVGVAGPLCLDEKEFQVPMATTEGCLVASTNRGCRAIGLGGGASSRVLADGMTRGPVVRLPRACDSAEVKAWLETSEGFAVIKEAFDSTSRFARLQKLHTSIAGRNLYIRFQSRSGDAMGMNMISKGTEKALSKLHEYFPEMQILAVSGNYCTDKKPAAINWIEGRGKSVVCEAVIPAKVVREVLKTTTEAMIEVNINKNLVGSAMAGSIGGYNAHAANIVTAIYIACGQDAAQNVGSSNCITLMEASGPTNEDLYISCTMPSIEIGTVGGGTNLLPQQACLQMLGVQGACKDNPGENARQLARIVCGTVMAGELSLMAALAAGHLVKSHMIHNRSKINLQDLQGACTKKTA
The assay can be described thus: Inhibition of human HMGCoA reductase.
Details: not given; call rule not given here
By IC50 is commonly meant the point on the concentration scale where inhibition reaches its midpoint. As to `CCCCCCCC/C=C\CCCCCCCC(=O)O` [OLEIC ACID], the IC50 entry is reported as “Not Active”.

In the case of `CCCCCCCCCCCCCCCCCC(=O)O` [STEARIC ACID], the IC50 result is recorded as “Not Active”.

The assay is the same for the next values; noted with them: read-out: IC50.
On to `CCCCCCCCC#CC#CC(O)CCCCC(=O)O` (centres undefined), for which the IC50 is 7 µM.

Consider `CCCCCCCCC#CCCCCCCCC(=O)O`, for which the IC50 stood at 5 µM.

Regarding `CCCCCCCCC#CC#CC1OC1CCCC(=O)O` (centres undefined), the IC50 stood at 5 µM.

As to `CCCCCCCCC#CC#CCCCCCC(=O)O`, the IC50 is 5 µM.

As to `CCCCCCCCC#CC#C/C=C/CCCC(=O)O`, the half-inhibitory concentration (IC50) was determined as 0.5 µM.

On to `CCCCC#CC#CCCCCCC(=O)O`, for which the IC50 amounted to 3 µM.

On to `CCCCCCCCC#CC#C/C=C\CCCC(=O)O`, for which the concentration for half-maximal inhibition (IC50) was 1.5 µM.
